Results published in PubChem BioAssay AID248 (DTP/NCI, 2004).
“And” between values parts separate entries of the source, which are not always exact repeats. Equal values may be shown once. Toxic doses and inconclusive results are not listed. No stated cut-off is given here; in the data, active means T/C of 150% or more; inactive means T/C below 125%.

Test system: L1210 leukemia ip in BDF1 mice, survival T/C
Experiment: NCI In Vivo Anticancer Drug Screen. Data for tumor model L1210 Leukemia (intraperitoneal) in B6D2F1 (BDF1) mice
Details: higher = longer survival
Outline: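 Mice bearing the transplanted tumor received compound or vehicle. Survival of the treated group was divided by that of the vehicle-treated control group to give the ratio.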

[1] = endpoint: mean survival time, dose: 100.0 mg/kg/injection, schedule: Q01DX009 (ip), vehicle: saline with Tween-80
[2] = endpoint: mean survival time, dose: 100.0 mg/kg/injection, schedule: Q04DX003 (ip), vehicle: saline with Tween-80
[3] = endpoint: mean survival time, dose: 200.0 mg/kg/injection, schedule: Q04DX003 (ip), vehicle: saline with Tween-80

Measured: T/C

C[C@@H]1C[C@@H]([C@H](O)CC2CC(=O)NC(=O)C2)C(=O)[C@@H](C)C1
inactive: endpoint: mean survival time, dose: 1.5 mg/kg/injection, schedule: Q01DX009 (ip), vehicle: saline with Tween-80 109 % of control | endpoint: mean survival time, dose: 4.31 mg/kg/injection, schedule: Q01DX Z (ip), vehicle: carboxymethylcellulose (CMC) 104 % of control | endpoint: mean survival time, dose: 5.0 mg/kg/injection, schedule: Q01DX010 (ip), vehicle: saline 103 % of control and 107 % of control | endpoint: mean survival time, dose: 7.5 mg/kg/injection, schedule: Q01DX Z (ip), vehicle: carboxymethylcellulose (CMC) 97 % of control and 100 % of control | endpoint: mean survival time, dose: 8.63 mg/kg/injection, schedule: Q01DX Z (ip), vehicle: carboxymethylcellulose (CMC) 102 % of control | endpoint: mean survival time, dose: 10.0 mg/kg/injection, schedule: Q01DX009 (ip), vehicle: acetone 106 % of control | endpoint: mean survival time, dose: 10.0 mg/kg/injection, schedule: Q01DX010 (ip), vehicle: saline 104 % of control and 108 % of control | endpoint: mean survival time, dose: 12.5 mg/kg/injection, schedule: Q01DX Z (ip), vehicle: carboxymethylcellulose (CMC) 108 % of control | endpoint: mean survival time, dose: 15.0 mg/kg/injection, schedule: Q01DX009 (ip), vehicle: Klucel (hydroxypropylcellulose) (HPC) 114 % of control | endpoint: mean survival time, dose: 15.0 mg/kg/injection, schedule: Q01DX009 (ip), vehicle: saline 123 % of control | endpoint: mean survival time, dose: 15.0 mg/kg/injection, schedule: Q01DX Z (ip), vehicle: carboxymethylcellulose (CMC) 108 % of control and 116 % of control | endpoint: mean survival time, dose: 16.0 mg/kg/injection, schedule: Q01DX015 (ip), vehicle: saline 119 % of control | endpoint: mean survival time, dose: 17.25 mg/kg/injection, schedule: Q01DX Z (ip), vehicle: carboxymethylcellulose (CMC) 103 % of control | endpoint: mean survival time, dose: 18.0 mg/kg/injection, schedule: Q01DX015 (ip), vehicle: saline 119 % of control | endpoint: mean survival time, dose: 20.0 mg/kg/injection, schedule: Q01DX009 (ip), vehicle: acetone 119 % of control | endpoint: mean survival time, dose: 20.0 mg/kg/injection, schedule: Q01DX010 (ip), vehicle: saline 110 % of control and 114 % of control | endpoint: mean survival time, dose: 24.3 mg/kg/injection, schedule: Q02DX010 (ip), vehicle: carboxymethylcellulose (CMC) 97 % of control | endpoint: mean survival time, dose: 25.0 mg/kg/injection, schedule: Q01DX Z (ip), vehicle: carboxymethylcellulose (CMC) 106 % of control | endpoint: mean survival time, dose: 25.0 mg/kg/injection, schedule: Q02DX010 (ip), vehicle: other 112 % of control | endpoint: mean survival time, dose: 27.0 mg/kg/injection, schedule: Q01DX015 (ip), vehicle: saline 107 % of control | endpoint: mean survival time, dose: 30.0 mg/kg/injection, schedule: Q01DX009 (ip), vehicle: Klucel (hydroxypropylcellulose) (HPC) 113 % of control | endpoint: mean survival time, dose: 30.0 mg/kg/injection, schedule: Q01DX009 (ip), vehicle: saline with Tween-80 121 % of control | endpoint: mean survival time, dose: 30.0 mg/kg/injection, schedule: Q04DX003 (ip), vehicle: Klucel (hydroxypropylcellulose) (HPC) 108 % of control | endpoint: mean survival time, dose: 32.0 mg/kg/injection, schedule: Q## X004 (ip), vehicle: saline 97 % of control | endpoint: mean survival time, dose: 34.5 mg/kg/injection, schedule: Q01DX Z (ip), vehicle: carboxymethylcellulose (CMC) 121 % of control | endpoint: mean survival time, dose: 36.0 mg/kg/injection, schedule: Q01DX015 (ip), vehicle: saline 115 % of control | endpoint: mean survival time, dose: 37.5 mg/kg/injection, schedule: Q02DX008 (ip), vehicle: saline 108 % of control | endpoint: mean survival time, dose: 38.0 mg/kg/injection, schedule: Q02DX010 (ip), vehicle: other 120 % of control | endpoint: mean survival time, dose: 40.0 mg/kg/injection, schedule: Q01DX010 (ip), vehicle: saline 109 % of control and 116 % of control | endpoint: mean survival time, dose: 42.0 mg/kg/injection, schedule: Q## X032 (ip), vehicle: saline 113 % of control | endpoint: mean survival time, dose: 44.0 mg/kg/injection, schedule: Q01DX001 (ip), vehicle: saline 103 % of control | endpoint: mean survival time, dose: 45.0 mg/kg/injection, schedule: Q01DX Z (ip), vehicle: methylcellulose (MC) 106 % of control | endpoint: mean survival time, dose: 45.0 mg/kg/injection, schedule: Q04DX003 (ip), vehicle: saline 106 % of control | endpoint: mean survival time, dose: 48.0 mg/kg/injection, schedule: Q## X004 (ip), vehicle: saline 96 % of control | endpoint: mean survival time, dose: 50.0 mg/kg/injection, schedule: Q01DX Z (ip), vehicle: carboxymethylcellulose (CMC) 118 % of control | endpoint: mean survival time, dose: 56.0 mg/kg/injection, schedule: Q02DX008 (ip), vehicle: saline 115 % of control | endpoint: mean survival time, dose: 60.0 mg/kg/injection, schedule: Q01DX009 (ip), vehicle: saline 102 % of control | endpoint: mean survival time, dose: 60.0 mg/kg/injection, schedule: Q01DX Z (ip), vehicle: methylcellulose (MC) 106 % of control | endpoint: mean survival time, dose: 60.0 mg/kg/injection, schedule: Q04DX003 (ip), vehicle: Klucel (hydroxypropylcellulose) (HPC) 122 % of control | endpoint: mean survival time, dose: 64.0 mg/kg/injection, schedule: Q## X032 (ip), vehicle: saline 106 % of control and 110 % of control | endpoint: mean survival time, dose: 67.0 mg/kg/injection, schedule: Q01DX001 (ip), vehicle: saline 115 % of control | endpoint: mean survival time, dose: 72.0 mg/kg/injection, schedule: Q## X004 (ip), vehicle: saline 112 % of control | endpoint: mean survival time, dose: 80.0 mg/kg/injection, schedule: Q01DX001 (ip), vehicle: alkali diluted with saline 107 % of control | endpoint: mean survival time, dose: 81.0 mg/kg/injection, schedule: Q01DX015 (ip), vehicle: saline 123 % of control | endpoint: mean survival time, dose: 85.5 mg/kg/injection, schedule: Q02DX010 (ip), vehicle: other 117 % of control | endpoint: mean survival time, dose: 90.0 mg/kg/injection, schedule: Q01DX009 (ip), vehicle: saline 97 % of control | endpoint: mean survival time, dose: 90.0 mg/kg/injection, schedule: Q04DX003 (ip), vehicle: saline 101 % of control | endpoint: mean survival time, dose: 96.0 mg/kg/injection, schedule: Q## X032 (ip), vehicle: saline 106 % of control and 115 % of control | endpoint: mean survival time, dose: 100.0 mg/kg/injection, schedule: Q01DX001 (ip), vehicle: saline 114 % of control | [1] 100 % of control | endpoint: mean survival time, dose: 100.0 mg/kg/injection, schedule: Q01DX Z (ip), vehicle: carboxymethylcellulose (CMC) 117 % of control | [2] 112 % of control | endpoint: mean survival time, dose: 108.0 mg/kg/injection, schedule: Q## X004 (ip), vehicle: saline 106 % of control | endpoint: mean survival time, dose: 120.0 mg/kg/injection, schedule: Q01DX001 (ip), vehicle: alkali diluted with saline 106 % of control | endpoint: mean survival time, dose: 120.0 mg/kg/injection, schedule: Q01DX009 (ip), vehicle: Klucel (hydroxypropylcellulose) (HPC) 96 % of control | endpoint: mean survival time, dose: 120.0 mg/kg/injection, schedule: Q01DX009 (ip), vehicle: saline with Tween-80 116 % of control | endpoint: mean survival time, dose: 126.0 mg/kg/injection, schedule: Q02DX008 (ip), vehicle: saline 112 % of control | endpoint: mean survival time, dose: 128.25 mg/kg/injection, schedule: Q02DX010 (ip), vehicle: other 74 % of control | endpoint: mean survival time, dose: 144.0 mg/kg/injection, schedule: Q## X032 (ip), vehicle: saline 118 % of control and 123 % of control | endpoint: mean survival time, dose: 162.0 mg/kg/injection, schedule: Q## X004 (ip), vehicle: saline 110 % of control | endpoint: mean survival time, dose: 180.0 mg/kg/injection, schedule: Q01DX001 (ip), vehicle: alkali diluted with saline 103 % of control | endpoint: mean survival time, dose: 180.0 mg/kg/injection, schedule: Q04DX003 (ip), vehicle: saline 97 % of control | endpoint: mean survival time, dose: 189.0 mg/kg/injection, schedule: Q02DX008 (ip), vehicle: saline 114 % of control | [3] 103 % of control | endpoint: mean survival time, dose: 216.0 mg/kg/injection, schedule: Q## X032 (ip), vehicle: saline 113 % of control and 117 % of control | endpoint: mean survival time, dose: 240.0 mg/kg/injection, schedule: Q04DX003 (ip), vehicle: Klucel (hydroxypropylcellulose) (HPC) 116 % of control | endpoint: mean survival time, dose: 320.0 mg/kg/injection, schedule: Q## X032 (ip), vehicle: saline 110 % of control | endpoint: median survival time, dose: 25.0 mg/kg/injection, schedule: Q04DX003 (ip), vehicle: alkali diluted with saline 103 % of control | endpoint: median survival time, dose: 50.0 mg/kg/injection, schedule: Q04DX003 (ip), vehicle: alkali diluted with saline 106 % of control | endpoint: median survival time, dose: 100.0 mg/kg/injection, schedule: Q04DX003 (ip), vehicle: alkali diluted with saline 103 % of control | endpoint: median survival time, dose: 200.0 mg/kg/injection, schedule: Q04DX003 (ip), vehicle: alkali diluted with saline 106 % of control

S=C(N/N=C/c1ccc(-c2ccccc2)cc1)Nc1ccccc1
inactive: [1] 86 % of control | [2] 97 % of control | endpoint: mean survival time, dose: 200.0 mg/kg/injection, schedule: Q01DX009 (ip), vehicle: saline with Tween-80 88 % of control | [3] 100 % of control | endpoint: mean survival time, dose: 400.0 mg/kg/injection, schedule: Q04DX003 (ip), vehicle: saline with Tween-80 94 % of control

Cc1c(Cl)cccc1Nc1n[nH]c(=S)s1
inactive: endpoint: mean survival time, dose: 75.0 mg/kg/injection, schedule: Q01DX001 (ip), vehicle: other 98 % of control | endpoint: mean survival time, dose: 150.0 mg/kg/injection, schedule: Q01DX001 (ip), vehicle: other 98 % of control | endpoint: mean survival time, dose: 300.0 mg/kg/injection, schedule: Q01DX001 (ip), vehicle: other 93 % of control

CCCc1c(OCC)c(OC)c2c3c(c(-c4c(C)cc5c(CCC)c(OCC)c(OC)c6c5c4OC6OC)c(C)cc13)OC2OC (configuration not stated)
inactive: endpoint: mean survival time, dose: 100.0 mg/kg/injection, schedule: Q01DX009 (ip), vehicle: Klucel (hydroxypropylcellulose) (HPC) 94 % of control | endpoint: mean survival time, dose: 200.0 mg/kg/injection, schedule: Q01DX009 (ip), vehicle: Klucel (hydroxypropylcellulose) (HPC) 98 % of control | endpoint: mean survival time, dose: 400.0 mg/kg/injection, schedule: Q01DX009 (ip), vehicle: Klucel (hydroxypropylcellulose) (HPC) 98 % of control
